Read-outs that look alike come from different tables or passages of the source.
Experiments:
[1] = system: S. pneumoniae; test: Interaction with vancomycin-provoked cell lysis; type: cell-based, Streptococcus pneumoniae; settings: O.D. changes with vancomycin in presence of inhibitor
Protocol: (§1) Figure 3 Effect of drugs on the autolytic process. (A) Percent changes in O.D. were measured in cultures of S. pneumoniae exposed to various concentrations of drugs expressed as multiples of MIC. Percent changes were calculated by comparing initial and final O.D. values. (B) O.D. changes in cells treated with vancomycin (VAN) in the presence and absence of HC-3 (HC3), MN58b (MN), and RSM-932A (RSM). (C) Detergent induced lysis of cells grown to saturation in the presence of 0.5 MIC MN58b and RSM-932A. (D) Phosphate induced lysis of cells grown to saturation in the presence of 0.5 MIC MN58b and RSM-932A.
Autolysis is a process of cell lysis and death that is mediated by LTAs via choline binding autolysins[19] such as LytA. […] In light of the non-specificity observed with HC-3 (being able to interfere with both ChoKs and the autolytic process), it seemed logical to check the specificity of MN58b and RSM-932A for sChoK inhibition. The interaction of MN58b, RSM-932A, and HC-3 with bacteriolytic antibiotic vancomycin was determined (Fig. 3B). […] The non-specificity of HC-3 may help to explain its weakness against sChoK.

[2] = target: T1, sChoK (Streptococcus pneumoniae, UniProt Q8DPI4); design: method as in doi:10.30721/fsab2018.v1.i2.40; settings: previously reported; read-out: IC50 against sChoK; cited from earlier work
T1 sequence (Q8DPI4 entry or part of it): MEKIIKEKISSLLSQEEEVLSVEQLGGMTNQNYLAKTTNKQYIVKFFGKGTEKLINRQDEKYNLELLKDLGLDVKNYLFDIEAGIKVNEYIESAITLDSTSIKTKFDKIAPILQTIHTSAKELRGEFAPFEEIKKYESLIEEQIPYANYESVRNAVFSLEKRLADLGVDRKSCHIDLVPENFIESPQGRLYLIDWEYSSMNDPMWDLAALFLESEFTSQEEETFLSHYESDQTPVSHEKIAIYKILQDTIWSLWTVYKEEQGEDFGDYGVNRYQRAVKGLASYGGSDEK

[3] = system: S. pneumoniae R6 strain; design: method as in PMID 28946671; settings: previously reported; cited from earlier work
[4] = target: T1, sChoK; test: IC50 by LDH/PK with purified recombinant sChoK; type: biochemical
Protocol: Purified sChoK was used in these assays. Steady-state enzymatic assays were monitored with the pyruvate kinase/lactate dehydrogenase (PK/LDH) reaction. The steady-state rate of ADP formation was calculated using an extinction coefficient of 6,200 M^−1 cm^−1 to determine linear reductions in NADH concentrations that were observed by absorbance at 340 nm. Measurements were carried out at 25 °C in a UV-Star 96-well plate (Greiner) placed in a Synergy HT microplate reader (Biotek). Each well contained 200 µL of a solution containing 22 nM sChoK enzyme, 100 mM Tris pH 8, 10 mM MgCl2, 150 mM NaCl, 150 mM KCl, […], 0.66 mM phosphoenolpyruvate, 20 units of LDH, and 10 units of PK, choline. ATP. […] The kcat was calculated by dividing the Vmax by the enzyme concentration.
Using the conditions described above, the concentration of choline was set to the Km and increasing amounts of inhibitor were tested. Percent inhibition was determined. The IC50 was determined as the concentration of inhibitor required to reach 50% inhibition.

[5] = target: T1, sChoK; test: IC50 by colorimetric method with BL21 (DE3) extracts expressing recombinant sChoK; type: biochemical
Protocol: (§2) When using cell extracts such as BL21 (DE3) extracts containing sChoK or S. pneumoniae extracts as the enzyme source, a colorimetric method was used to quantify Cho consumption and PCho production as described previously.
The IC50s of each drug against sChoK were measured using two methods: the indirect ldh/pk method that relied on recombinant sChoK and which indirectly measured consumption of ATP[14] and a previously reported colorimetric method that relied on BL21 (DE3) extracts expressing recombinant sChoK, which directly measured the consumption of choline and the production of phosphocholine. Inhibitors were similarly effective in a complex cell extract and in a simplified system relying on a purified enzyme. […] RSM-932A was stronger that MN58b by 1–2 orders of magnitude.

[6] = system: S. pneumoniae R6 strain; test: Minimum inhibitory concentration (MIC) and minimum lethal concentration (MLC) in culture; type: cell-based, Streptococcus pneumoniae; settings: for MLC: S. pneumoniae R6, 99.9% of cells killed by CFU counts; for MIC: Streptococcus pneumoniae, R6STRAIN, S. pneumoniae R6, BHI-CAT, O.D.610 of 0 at end of culture
Protocol: Seven μL of a glycerol stock of the S. pneumoniae R6 strain was used to inoculate 7 mL of Brain Heart Infusion broth (BHI, Accumedia, Sydney, Australia) supplemented with 5 units/mL catalase (BHI-CAT). This starter culture was incubated at 37 °C in a water bath until an optical density at 610 nm (OD610) […]. Forty μL of this starter culture was used to inoculate 40 mL of BHI-CAT media with or without varying concentrations of inhibitor.
MIC was determined as the concentration inhibitor at which an O.D.610 of 0 was measured at the end of culture time. MLC was defined as the concentration at which 99.9% of cells were killed at the end of culturing time as determined by CFU counts using Meuller–Hinton plates.

[7] = target: T1, sChoK; test: Substrate-inhibitor competition (competitivity) by LDH/PK; type: biochemical
Protocol: The mechanism of action of the inhibitors with respect to each substrate was determined using a previously described method[13],[14]. Briefly, using the IC50 of each inhibitor determined at the Km of choline, the concentration of one substrate was kept constant, and initial velocities were measured while varying the second substrate in the presence and absence of the inhibitor. The percentage of inhibition (%I) was determined by dividing each initial velocity in the presence of the inhibitor with its corresponding initial velocity in the absence of compound. %I was plotted against concentration and fitted using a two-parameter-fit nonlinear regression algorithm of GnuPlot v 4.3 into Eq. (2).2 %I=100×(([I]/Ki+[S][I]/αKsKi/(1+[S]/Ks+[I]/Ki+[S][I]/αKsKi)) where [S] is the concentration of the varied substrate, [I] is the concentration of inhibitor, Ks is the dissociation constant of the substrate (assumed to be equal to the Km), Ki is the dissociation constant of the inhibitor, and α is a numerical constant that measures the effect the substrate has on the binding of the inhibitor and vice versa.
A mechanistic analysis was performed for each inhibitor by performing steady-state enzymatic reactions with sChoK in which one substrate was varied while the other substrate was fixed both in assays with and without inhibitor fixed at a concentration equal to its IC50. sChoK inhibition was calculated as a percentage (%I) calculated by dividing the initial velocity at each substrate concentration with inhibitor by counterpart initial velocities in the absence of inhibitor. %I values were plotted against substrate concentration. The resulting data was fitting to an Eq. (2) and Ki and α values calculated.

[8] = system: S. pneumoniae; test: Percent O.D. changes of cultures exposed to multiples of MIC (bacteriostatic/bacteriolytic); type: cell-based, Streptococcus pneumoniae; settings: cultures grown to O.D. 0.500, concentrations as multiples of MIC
Protocol: as §1

[9] = system: S. pneumoniae; test: Detergent and phosphate induced lysis of cells grown with 0.5 MIC inhibitor; type: cell-based, Streptococcus pneumoniae; settings: cells grown in presence of 0.5 MIC
Protocol: as §1
Given the observation that MN58b and RSM-932A were sChoK inhibitors, our expectation was that cells treated with these inhibitors would show a decrease in overall LTA content because a decrease in phosphocholine availability would reduce the overall production of LTA residues and, by extension, LTA molecules. A reduction in LTA content, in turn, should help desensitize cells to autolytic induction. Although autolysin proteins would be released, they would not be able to dock on the cell surface because the autolysin choline binding domains would have fewer choline containing LTA molecules with which to interact. Both LTA reduction and cell […] had previously been observed with HC-3[17].

[10] = system: S. pneumoniae R6 cells; test: Western blot detection of lipoteichoic acid (LTA); type: cell-based, Streptococcus pneumoniae; settings: cells grown to saturation with 0.5 MIC
Protocol: R6 cells were cultured to saturation in either BHI-cat alone or BHI-cat 0.5 MIC of MN58b or RSM-932A. One milliliter (1 mL) of cell samples was centrifuged at 3,000g, sonicated 3 × 2 min on ices. Western blots were performed as described[3] while total protein on the membrane was measured by fluorescence according to Quickstain instructions.
In order to quantify LTA production, western blots were performed on extracts of cells grown to saturation in the presence of 0.5 MIC MN58b or RSM-932A. LTA band patterns clearly differed between treatments. […] It is important to note that each size band in an LTA western blot differs from the lower one by a single LTA residue (Fig. 4A)[19].

[11] = target: T1, sChoK; test: Colorimetric choline kinase assay with S. pneumoniae extracts; type: biochemical; settings: choline consumption
Description: as §2
In light of the inconsistent results between sChoK inhibition by MN58b and RSM-932A which are both known choline kinase inhibitors, we repeated the colorimetric experiments using S. pneumoniae extracts as the source of sChoK, The goal of the experiment was to determine whether or not differences in sChoK inhibition could be detected in a more native environment than that provided by extracts of E. coli overexpressing sChoK or purified sChoK. […] This agonism was confirmed by mass spectrometry (data not shown) and was also found to be ATP dependent, thereby supporting the inference that RSM-932A was still affecting sChoK activity, although in the opposite direction.

| Structure (SMILES) | Effect on cell lysis provoked by vancomycin [1] | IC50 [4] | IC50 [5] | MLC [6] | MIC [6] | Kminh/Kmfree ([7]; (A) inhibitor vs ATP) | Mechanism of Inhibition ([7]; (A) inhibitor vs ATP) | Vmaxinh/Vmaxfree ([7]; (A) inhibitor vs ATP) | α ([7]; (A) inhibitor vs ATP) | Mechanism of Inhibition ([7]; (B) inhibitor vs choline) | Vmaxinh/Vmaxfree ([7]; (B) inhibitor vs choline) | Ki ([7]; (A) inhibitor vs ATP) | Ki ([7]; (B) inhibitor vs choline) | Bacteriostatic or bacteriolytic action [8] | Sensitivity of cells to induced autolysis [9] | LTA size pattern [10] | Total LTA production [10] | Effect on choline kinase activity in S. pneumoniae extracts [11] | also measured |
| --- | --- | --- | --- | --- | --- | --- | --- | --- | --- | --- | --- | --- | --- | --- | --- | --- | --- | --- | --- |
| C[N+]1(C)CCOC(O)(c2ccc(-c3ccc(C4(O)C[N+](C)(C)CCO4)cc3)cc2)C1 (centres unmarked) [HC-3, Hemicholinium-3] | prevented cell lysis provoked by vancomycin |  |  |  |  |  |  |  |  |  |  |  |  |  |  |  |  |  | IC50 [2]: 2700 µM; MIC [3]: 5,400 µM |
| CN(C)c1cc[n+](Cc2ccc(CCCCc3ccc(C[n+]4ccc(N(C)C)cc4)cc3)cc2)cc1 [MN58b, 1,4-[4–4′-Bis-{[4-(dimethylamine)pyridinium-1-yl]methyl}diphenyl]butane dibromide] | minimal to no effect | 645 µM | 225 µM | 20 µM | 10 µM | 3.48 | Mixed | 0.76 | 6.0 ± 2.2 | Mixed | 0.69 | 182 ± 28.1 µM | 124 ± 19.2 µM | bacteriostatic up to a concentration of 50 × MIC after which they become bacteriolytic | primed the cells to be autolyzed | marked increase in the smaller sizes of LTA | marked increase in total LTA production | continued to function as an inhibitor of choline kinase activity | Kminh/Kmfree ([7]; (B) inhibitor vs choline): 2.3 |
| CN(c1ccc(Cl)cc1)c1cc[n+](Cc2ccc(-c3ccc(C[n+]4ccc(N(C)c5ccc(Cl)cc5)c5ccccc54)cc3)cc2)c2ccccc12.[Br-].[Br-] [RSM-932A, 1,1′-([1,1′-biphenyl]-4,4′-diylbis(methylene))bis(4-((4-chlorophenyl)(methyl)amino)quinolin-1-ium) bromide] | minimal to no effect | 22 µM | 0.5 µM | 1.6 µM | 0.4 µM | 0.92 | Noncompetitive | 0.61 | 1.1 ± 0.17 | Mixed | 0.76 | 35.8 ± 3.2 µM | 10.6 ± 0.9 µM | bacteriostatic up to a concentration of 50 × MIC after which they become bacteriolytic | equally sensitive to autolysis as untreated controls | larger size polymers were favored | overall production remained unchanged | somewhat inhibitory at lower concentrations, it functioned as an agonist of choline kinase activity at higher concentrations | α ([7]; (B) inhibitor vs choline): 8.1 ± 1.8 |
